According to patent US7022719B2, “Preventing and reversing the formation of advance glycosylation endproducts” (Alteon, Inc., priority 1995, dated 2006):
Read-outs that look alike come from different tables or passages of the source.

Key:
[1] = test system: AGE-BSA crosslinked to collagen; test: Cross-link Breaking Assay (sandwich enzyme immunoassay); type: biochemical; conditions: for Breaking Anti-AGE: anti-AGE antibody; for Breaking Anti-BSA: anti-BSA antibody
Protocol: The present invention also involves a novel sandwich enzyme immunoassay used to ascertain the ability of test compounds to “break” or reverse already formed advanced glycosylation endproducts by detecting the breaking of AGE (Advanced glycosylation endproduct) moieties from AGE-crosslinked protein. This assay comprises: • a) incubation of AGE-modified bovine serum albumin (AGE BSA) on collagen-coated wells of microtiter plates for a period of 2–6 hours' at a temperature of 37° C.; • b) washing of the wells with PBS-Tween; • c) application of the test compounds to the washed wells of step b; • d) incubation of the test compounds applied to the washed wells for an additional 12–24 hours at a temperature of about 37° C.; and • e) detection of the AGE-breaking using an antibody raised against AGE-ribonuclease or cross-link breaking with an antibody against BSA.
In order to ascertain the ability of the compounds of the instant invention to “break” or reverse already formed advanced glycosylation endproducts, a novel sandwich enzyme immunoassay was developed which detects breaking of AGE (Advanced glycosylation endproduct) moieties from AGE-crosslinked protein. The assay utilizes collagen-coated 96 well microtiter plates that are obtained commercially. […] Following an incubation period of 16 hours (37° C.) cross-link-breaking is detected using an antibody raised against AGE-ribonuclease or with an antibody against BSA. […] Details of the assay are as follows:
Methods Preparation of Solutions and Buffers • 1. AGE-BSA stock solutions were prepared as follows. Sodium phosphate buffer (0.4 M) was prepared by dissolving 6 grams of monobasic sodium phosphate in 100 ml of distilled water, 7 grams of dibasic sodium phosphate (0.4 M) in 100 ml of distilled water and adjusting the pH of the dibasic solution to 7.4 with the monobasic solution. Sodium azide (0.02 grams) was added per 100 ml volume to inhibit bacterial growth. The BSA solution was prepared as follows: 400 mg of Type V BSA (bovine serum albumin) was added for each ml of sodium phosphate buffer (above). A 400 mM glucose solution was prepared by dissolving 7.2 grams of dextrose in 100 ml of sodium phosphate buffer (above). The BSA and glucose solutions were mixed 1:1 and incubated at 37° C. for 12 weeks. The pH of the incubation mixture was monitored weekly and adjusted to pH 7.4 if necessary. After 12 weeks, the AGE-BSA solution was dialyzed against PBS for 48 hours with four buffer changes, each at a 1:500 ratio of solution to dialysis buffer. Protein concentration was determined by the micro-Lowry method. The AGE-BSA stock solution was aliquoted and stored at −20° C. […] Working solutions for crosslinking and breaking studies were prepared as follows. Test compounds were dissolved in PBS and the pH was adjusted to pH 7.4 if necessary. AGE-BSA stock solution was diluted in PBS to measure maximum crosslinking and in the inhibitor solution for testing inhibitory activity of compounds. The concentration of AGE-BSA necessary to achieve the optimum sensitivity was determined by initial titration of each lot of AGE-BSA. • 3. Wash buffer (“PBS-Tween”) was, prepared as follows. PBS was prepared by dissolving the following salts in one liter of distilled water: NaCl, 8 grams; KC1, 0.2 gram, KH2PO4. […] Tween-20 was added to a final concentration of 0.05% (vol/vol). • 4. Substrates for detection of secondary antibody binding were prepared by diluting the HRP substrate buffer 1:10 in distilled water and mixing with ABTS chromogen 1:50 just prior to use. Assay Procedures • 1. Biocoat plates were blocked with 300 μl of “Superbloc”. Plates were blocked for one hour at room temperature and were washed with PBS-Tween three times with the Dynatech platewasher before addition of test reagents. • 2. Each experiment was set up in the following manner. The first three wells of the Biocoat plate were used for the reagent blank.

[2] = test system: IgG crosslinked to circulating red blood cells; test: RBC-IgG Assay in streptozotocin-induced diabetic rats; type: in vivo, rat; conditions: diabetic rats dosed orally at 10 mg/kg body weight; 19 days
Protocol: The test compounds are administered to the test animals either orally or intraperitoneally, and the blood samples are collected are tested at various times, e.g. 4, 7 or 19 days, after administration to assess efficacy.
Blood is collected from the rats in heparinized tubes and spun at 2000×g for 10 minutes, and the plasma carefully removed. Then, about 5 ml of PBS per ml blood is added, gently mixed, and then spun again. The supernatant is then removed by aspiration. The wash is then repeated two more times. Then, 0.2 to 0.3 ml of packed RBC is withdrawn from the bottom of the tube, using a pipette, and added to the PBS to make a 1 to 10 dilution. This dilution is then further diluted 1 to 25 and 1 to 50 in PBS. • B. Assay Set Up. • 1. Warm Superbloc to 37° C. • 2. Take a plate of Multiscreen-HA, 0.45 u. Cellulose ester membrane-sealed 96 well plate (Millipore MARAS45). • 3. Wet the wells with 100 μl of PBS. • 4. Add 300 μl of superblock to each well and incubate at 37° C. for one hour. • 5. Place the plate on the Millititer Vacuum holder, turn on the vacuum and press the plate down once for tight hold. The liquids in the wells will be suctioned off. Wash the wells with 300 μl of PBS-Tween 0.05%. • 6. Turn off the vacuum and add 100 μl of PBS to each well. • 7. […] Read OD of the solution collected in the Coming plate on Dynatech Plate reader Sample filter 1 and Ref. filter 4. • 17. […]

[3] = test system: cross-linking of glycated bovine serum albumin (AGE-BSA) to rat tail tendon collagen; test: Cross-linking Inhibition Assay; conditions: for IC50: inhibition of AGE-BSA cross-linking to collagen-coated plate
Protocol: The following method was used to evaluate the ability of the compounds of the present invention to inhibit the cross-linking of glycated bovine serum albumin (AGE-BSA) to the rat tail tendon collagen-coated 96-well plate.
The blocking solution was removed from the wells by, washing the plate twice with PBS-'Tween 20 solution (0.05% Tween 20) using a NUNq-multiprobe or Dynatech ELISA-plate washer. Cross-linking of AGE-BSA (1 to 10 mg per well depending on the batch of AGE-BSA) to rat tail tendon collagen coated plate was performed with and without the testing ‘compound dissolved in PBS buffer at pH 7.4 at the desired concentrations by the, addition of 50 μl each of the AGE-BSA diluted in PBS or in the solution of test compound at 37° C. for 4 hours. Unbrowned BSA in PBS buffer with or without testing compound were added to the separate wells as the blanks. The un-cross-linked AGE-BSA was then removed by washing the wells three times with PBS-Tween buffer. The amount of AGE-BSA cross-linked to the tail tendon collagen-coated plate was then quantitated using a polyclonal antibody raised against AGE-RNase. After a one-hour incubation period, AGE antibody was removed by washing 4 times with PBS-Tween.
The bound AGE antibody was then detected with the addition of horseradish peroxidase-conjugated secondary antibody—goat anti-rabbit immunoglobulin and incubation for 30 minutes. […] The reaction was allowed for an additional 15 minutes and the absorbance was read at 410 nm in a Dynatech plate reader.

[4] = test system: tail tendon collagen; test: CNBr peptide maps of tail tendon collagen from diabetic rats; type: biochemical, rat; conditions: tail tendon collagen of rats diabetic for 32 weeks, treated before cyanogen bromide digestion
[5] = test system: cross-linked AGE-BSA; test: Breaking of AGE-BSA polymer gel (SDS-PAGE); type: biochemical; conditions: 10 mm, overnight at 37° C.
Protocol: BSA and glucose solutions (100 ml each) were mixed in the one liter Coming sterile flask, screw-capped tight and incubated at 56° C. without shaking. The bottle was opened once a week to remove aliquots for testing. Reaction was continued for 9 weeks when AGE-BSA polymer formation was observed.
Pieces of AGE-BSA gel was washed with PBS until no more protein was leached in the supernatant, blotted dry with paper towels. About 50 mg of the washed gel was incubated either with PBS or 10 mm 3-(2-phenyl-2-oxoethyl)thiazolium bromide (ALT 766) overnight at 37° C. The supernatants were analyzed by SDS-PAGE and stained with coommassie blue.

[6] = test system: aortic wall protein cross-linking; conditions: diabetic rats; cited from earlier work
[7] = test system: immunoglobulin trapping in the kidney; conditions: in vivo; cited from earlier work
[8] = test system: glomerular basement membrane thickness; conditions: streptozotocin-diabetic rat model; cited from earlier work
[9] = test system: red blood cells; conditions: in vivo; cited from earlier work

Cc1c(CCO)sc[n+]1CC(=O)c1ccc2ccccc2c1.[Br-] [3-(2-(2′-naphthyl)-2-oxoethyl]-4-methyl-5-(2′-hydroxyethyl)-thiazolium bromide]
Breaking Anti-AGE ([1]; at 10 mM): 52%
Breaking Anti-BSA ([1]; at 10 mM): 61%
Percent Inhibition (RBC-IgG) [2]: 40 ± 24 @ 19 days %
Relative Cross-link Inhibition (at 10 mM) ([3]; at 10 mM): 61%

O=C(C[n+]1ccsc1)c1ccccc1.[Br-] [3-(2-phenyl-2-oxoethyl) thiazolium bromide]
release of BSA from pre-formed AGE-mediated AGE-BSA/collagen complexes ([1]; AGE-BSA reacted with unmodified, native collagen): concentration-dependent release of BSA
Breaking Anti-AGE ([1]; concentration not given): 73%
Breaking Anti-BSA ([1]; concentration not given): 98%
IC50 ([1]; detection with anti-AGE antibody, read-out: IC50 (mM) Anti-AGE): 0.02 mM
IC50 ([1]; detection with anti-BSA antibody, read-out: IC50 (mM) Anti-BSA): 0.014 mM
electrophoresis of CNBr-digested collagen after treatment [4]: indistinguishable from untreated, non-diabetic (control) collagen
breaking of cross-linked AGE-BSA (SDS-PAGE, FIG. 2) [5]: breaking of cross-linked AGE-BSA
IC50 [3]: 11100 µM

COC(=O)C[n+]1csc(C)c1C.[Br-] [3-(2-methoxy-2-oxoethyl)-4,5-dimethylthiazolium bromide]
Breaking Anti-AGE ([1]; at 30 mM): 63%
Breaking Anti-BSA ([1]; at 30 mM): 47%
melting point: 184 to 185 °C (dec.)
IC50 [3]: 480 µM

N=C(N)NN [aminoguanidine]
aortic wall protein cross-linking [6]: diminishes
immunoglobulin trapping in the kidney [7]: reduction
increased glomerular basement membrane thickness [8]: prevented
diabetes-induced changes in the deformability of red blood cells [9]: prevent
